The results in this text go back to US5212179A, “Piperidine derivatives” (John Wyeth and Brother Limited, priority 1980, dated 1993).

Assay [1] relates to 5-hydroxy-L-tryptophan (5-HTP) induced behavioural syndrome. Description: Potentiation of 5-HTP induced behavioural syndrome, dose/response study in rats. It is filed as in vivo. The following applies: Rattus norvegicus, ip, 5-HTP 70 mg/kg i.p. As for the experimental part: (§1) Thus, this test can be used as an indication of in vivo 5-HT uptake inhibition.
b) Dose/Response study in rats
Groups of 6 male rats (150 g) were dosed with test compound suspended in HPMC. Thirty minutes later 5-HTP (70 mg/kg 5 i.p.) was given and the number of signs/rat recorded between 20 and 35 minutes post 5-HTP. Linear regression analysis of the results was performed and the ED50 calculated from this.

In assay [2] the test system is neuronal uptake of 5-hydroxytryptamine into slices of cerebral cortex. Description: Inhibition of 5-hydroxytryptamine (5-HT) uptake in brain slices. The conditions noted are these: rat cerebral cortex slices, relative to imipramine. It is filed as biochemical. As for the experimental part:
Compounds of formula I were tested for ability to inhibit 5-hydroxytryptamine (5-HT) uptake in brain slices using the following procedure:
Concentration-response curves for the test compound and for the standard agent, imipramine, are obtained. The potency of the test compound is expressed in proportion to that of imipramine. Thus, the potency ratio for the test compound [formula]

The test system of assay [3] is uptake of 5-HT into rat brain synaptosomes. In words: Inhibition of 5-HT uptake into rat brain synaptosomes. It is filed as biochemical, male Sprague Dawley rats. As for the experimental part:
(§2) The test procedure involved obtaining synaptosomal preparations from male Sprague Dawley rats according to the method of Grey and Whittaker* as modified by Wood and Wyllie.** Aliquots of the synaptosomal preparation were then incubated with tritrated noradrenaline (NA) or 5-HT at a temperature of 37° C. for 4 minutes. The active synaptosomal accumulation of labelled substrate was measured by filtration and scintillation counting. The effect at a range of concentrations of test compound enabled IC50 values and selectivity ratios to be calculated.
(§3) * Grey and Whittaker,--J. Anat. 96 79 (1962)
(§4) ** Wood and Wyllie, J. Neurochemistry, 37, 795 (1981)

Assay [4] relates to 5-hydroxy-L-tryptophan (5-HTP) induced behavioural syndrome. In words: Potentiation of 5-HTP induced behavioural syndrome, dose/response study in mice. It is filed as in vivo. The conditions noted are these: Mus musculus, po, 5-HTP 80 mg/kg i.p. As for the experimental part: as §1
a) Dose/response study in mice
Groups of 12 (2 subgroups of 6) female mice (18-22g) were used per dose, each group being housed in a separate cage for the duration of the experiment. Mice were dosed p.o. with either test compound or vehicle (0.5% HPMC) and 30 minutes later received a threshold dose of 5-HTP (80 mg/kg i.p.) and were placed in perspex cylinders (12" diameter).
The dose that produced the syndrome in 50% of the mice was calculated using the method of Litchfield and Wilcoxon, […]

The subject of assay [5] is p-chloroamphetamine (pCA) induced hyperactivity. In words: Inhibition of p-chloroamphetamine (pCA) induced hyperactivity in mice. It is filed as in vivo. The conditions noted are these: Mus musculus, po, female mice, 50 mg/kg po, pCA 20 mg/kg ip, 10-30 minutes post pCA. As to the method: The following test procedure was used to test for ability to inhibit p-chloroamphetamine induced hyperactivity.
Three groups of 4 female mice (20-24 g) receive the test compounds (50 mg/kg po) and a fourth group the requisite volume of vehicle. Thirty minutes later all the animals are given 20 mg/kg p-chloroamphetamine (pCA) ip. The grouped mice are placed immediately in square plastic cages in activity monitors and their motor activity recorded over the period 10-30 minutes post pCA. This procedure is repeated three more times so that four groups of mice are used per treatment and each activity monitor is used with all treatments in turn. The inhibition of pCA induced hyperactivity is calculated thus: [formula] where C=mean activity of control groups 10-30 minutes post pCA.
T=mean activity of treated groups 10-30 minutes post pCA.
This test is used as an in vivo screen for detection of 5-hydroxytryptamineuptake inhibitors.
Compounds giving >50% inhibition are considered of special interest. In such a test the following compounds were particularly active: […]

The test system of assay [6] is uptake of ^3 H noradrenaline into rat brain synaptosomes. Description: Inhibition of 3H noradrenaline uptake into rat brain synaptosomes. It is filed as biochemical, male Sprague Dawley rats. The conditions noted are these: 37° C., 4 minutes, read-out: IC50 NA uptake. As to the method:
as §2, §3, §4

The subject of assay [7] is p-chloroamphetamine (pCA)-induced stereotypy. In words: Inhibition of p-chloroamphetamine (pCA)-induced stereotypy in rats. The following applies: for ED50: Rattus norvegicus, po, 90 minutes before pCA 10 mg/kg i.p., results for succinate salt corrected for amount of active material, read-out: ED50 (dose required to produce 50% inhibition of pCA induced stereotypy); for ED50 / antagonism of pCA-induced stereotypy (in words): rats, p.o.; for antagonism of pCA-induced stereotypy (in words): 5 dose levels. It is filed as in vivo, male Sprague-Dawley rats. As to the method:
Representative compounds of formula IA were tested for their ability to inhibit pCA induced syndrome in rats by the standard procedure described below:
Inhibition of p-chloroamphetamine (pCA)-induced stereotypy
Vehicle or drug (5 dose levels) were administered p.o. to six groups of 6-8 male Sprague-Dawley rats (300-400 g) followed, 90 minutes later, by pCA (10 mg/kg i.p.). The animals were then placed in individual observation chambers and, 30 minutes after pCA administration, the intensity of the pCA-induced 5-HT syndrome was assessed according to the following scoring system: […]
Therefore, the maximum score for each animal was 10.
The inhibition of pCA induced stereotypy is calculated for each dose level as follows: [formula] where C=control group total score at 30 minutes post pCA.
T=group total score of treated group at 30 minutes post pCA.
For each dose a % effect is calculated.
The results obtained from the tests using 5 different dose levels of the drug allow the ED50 value (i.e. the dose required to produce 50% inhibition of pCA induced stereotypy) to be calculated.
The test was carried out using the free bases for compound C. Compound B was tested in the form of the succinate salt and the results corrected for amount of active material.

For assay [8], the system named is 5-hydroxy-L-tryptophan induced behavioural syndrome. Description: Potentiation of 5-hydroxytryptophan (5-HTP)-induced behaviour in rats. The following applies: Rattus norvegicus, po, 5-HTP 50 mg/kg s.c., citrate salt, corrected for amount of base. It is filed as in vivo, male Sprague-Dawley rats. As to the method:
The compound (C) was also tested for its ability to potentiate 5-hydroxy-L-tryptophan induced behavioural syndrome in rats. The test procedure is described below
Potentiation of 5-hydroxytryptophan (5-HTP)-induced behaviour
Groups of 10 male Sprague-Dawley rats (310-360 g) were dosed p.o. with vehicle or drugs. Ninety minutes later 5-HTP (50 mg/kg s.c.) was administered and the animals placed in individual observation chambers (peripheral decarboxylation was prevented by 25 mg/kg i.p. carbidopa administered 60 minutes before 5-HTP). Head shakes were counted over the period 30-45 minutes after 5-HTP and the intensity of the 5-HT syndrome was scored immediately afterwards using the system described for the pCA procedure above. Percentage potentiation of syndrome was calculated as follows: […]
Percentage potentiation was calculated from the following: [formula]

Take `O=C(NC(=O)c1ccccc1)NC1CCN(Cc2ccc3ccccc3c2)CC1` [Example 1, 1-Benzoyl-3-[1-(naphth-2-ylmethyl)piperid-4-yl]urea]: the values for the 50% effective dose (ED50) in assay [1] and in assay [4] were 5.3 mg/kg and 7.2 mg/kg, respectively. For the same molecule, in assay [2], the “potency ratio (imipramine=1.0)” value was found to be 8.8. The “Selectivity Ratio” value in assay [3] (5-HT uptake relative to NA uptake) was 455. The concentration for half-maximal inhibition (IC50) was 0.044 µM in assay [3] (37° C., 4 minutes) and 20 µM in assay [6]. The same molecule returned an inhibition in vivo at 50 mg/kg in assay [5] of 67.5%.

As to `O=C(NC(=O)c1ccccc1)NC1CCN(Cc2cccc3ccccc23)CC1` [Example 2, 1-Benzoyl-3-[1-(naphth-1-ylmethyl)piperid-4-yl]urea], at 50 mg/kg the inhibition in vivo in assay [5] was 56.4%.

As for `CC(C)c1ccc(CN2CCC(NC(=O)NC(=O)c3ccccc3)CC2)cc1` [Example 3, 1-Benzoyl-3-[1-(4-isopropylbenzyl)piperid-4-yl]urea], 50 mg/kg produced 49% inhibition in vivo in assay [5].

As for `Cc1ccc(CN2CCC(NC(=O)NC(=O)c3ccccc3)CC2)cc1C` [Example 6, 1-Benzoyl-3-[1-(3,4-dimethylbenzyl)piperid-4-yl]urea], in assay [5], 50 mg/kg produced 68.9% inhibition in vivo.

For the molecule `O=C(NC(=O)c1ccccc1)NC1CCN(Cc2ccc3c(c2)CCCC3)CC1` [Example 14, 1-Benzoyl-3-[1-(5,6,7,8-tetrahydro-naphth-2-ylmethyl)piperid-4-yl]urea], the inhibition in vivo at 50 mg/kg in assay [5] was determined as 69.4%.

On to `CCc1ccc(CN2CCC(NC(=O)NC(=O)c3ccccc3)CC2)cc1` [Example 15, 1-Benzoyl-3-[1-(4-ethylbenzyl)piperid-4-yl]urea], for which at 50 mg/kg the inhibition in vivo in assay [5] was 72.9%.

For `O=C(NC(=O)c1ccccc1)NC1CCN(Cc2ccc3c(c2)CCC3)CC1` [Example 20, 1-Benzoyl-3-[1-(indan-5-ylmethyl)-piperid-4-yl]urea], the inhibition in vivo at 50 mg/kg in assay [5] was found to be 59.3%.

In turn, `CC(c1ccc2ccccc2c1)N1CCC(NC(=O)NC(=O)c2ccccc2)CC1` (centres unmarked) [Example 21, 1-Benzoyl-3-[1-(1-(naphth-2-yl)ethyl)-piperid-4-yl]urea] returned an inhibition in vivo at 50 mg/kg in assay [5] of 71.7%.

With `O=C(NC(=O)c1cccnc1)NC1CCN(Cc2ccc3cc(F)ccc3c2)CC1` [Example 62, N[[[1-[(6-Fluoro-2-naphthalenyl)methyl]-4-piperidinyl]amino]carbonyl]-3-pyridinecarboxamide], the inhibition of syndrome in assay [7] (At 50 mg/kg) is given as 99%. Besides, the median effective dose (ED50) worked out at 2.5 mg/kg in assay [7] and 5 mg/kg in assay [8]. Also, in assay [7], the “antagonism of pCA-induced stereotypy (in words)” value is reported as “antagonised pCA-induced stereotypy in a dose-dependent manner”.

In the case of `O=C(NC(=O)c1ccncc1)NC1CCN(Cc2ccc3cc(F)ccc3c2)CC1` [Example 63, N-[[[1-[(6-Fluoro-2-naphthalenyl)methyl]-4-piperidinyl]amino]carbonyl]-4-pyridinecarboxamide], in assay [7], the ED50 turned out to be 3.8 mg/kg and the “antagonism of pCA-induced stereotypy (in words)” value is on record as “antagonised pCA-induced stereotypy in a dose-dependent manner”.

Turning to `CN(C)CCCN1c2ccccc2CCc2ccc(Cl)cc21` [clomipramine, reference compound], the median effective dose (ED50) turned out to be 39.2 mg/kg in assay [1] and 18 mg/kg in assay [4].

Take `CN(C)CCCN1c2ccccc2CCc2ccccc21` [imipramine, reference compound]: the “potency ratio (imipramine=1.0)” value in assay [2] worked out at 1.0.

As a reminder, the ED50 is the dose at which the effect has come halfway, by size or by number of responders. In general, IC50 refers to the point on the concentration scale where inhibition reaches its midpoint. What is called inhibition in vivo is the percentage by which the read-out fell short of the control.
